Experimental data: PubChem BioAssay AID1963835 (Molecular Pharmacology Branch, DTP, NCI, 2024)

System: 699152-130-R-J1-PDC complex spheroid viability
Test: Anticancer human tumor 699152-130-R-J1-PDC patient-derived pancreatic carcinoma cell line growth inhibition [POLQ]
Conditions: for IC50: curve of first compound; for viability, T/C: stronger effect = lower value
Method: Multicellular complex tumor spheroid response to Polymerase (POL) inhibitors (novobiocin, ART-558, RP6685) in combination with a variety of drugs and investigational agents in selected tumor cell lines
The POL inhibitors (novobiocin, ART-558, and RP6685) were evaluated both individually and in combination with standard of care and investigational anticancer small molecules within a complex spheroid model of solid tumors. . Complex spheroids include a stromal component modeled by human endothelial cells (HUVEC) and fibroblasts modeled by human mesenchymal stem cells (MSCs). The concentration ranges selected for each drug and investigational agent were based upon clinically achievable concentrations if the clinical Cmax of the agent was known.
Compounds. The drugs and investigational agents: novobiocin (NSC847541), ART-558 (NSC835418), RP-6685 (NSC848927), peposertib (NSC802822), ceralasertib (NSC780249), elimusertib (NSC800525), camonsertib (NSC841442), AZD-1390 (NSC803789), olaparib (NSC753686), talazoparib (NSC767125), rucaparib (NSC756644), sotorasib (NSC818433), MRTX-1133 (NSC836407), SN-38 (NSC673596), topotecan (NSC609699), epotoside (NSC141540), doxorubicin (NSC123127), gemcitabine (NSC613327), 5-fluorouracil (NSC19893), paclitaxel (NSC125973), vemurafenib (NSC761431), MSA-2 (NSC828583), SN-011 (NSC837082), adavosertib (NSC754352), prexasertib (NSC758257), carboplatin (NSC241240) and oxaliplatin (NSC266046), were obtained from the National Cancer Institute (NCI) Developmental Therapeutics Program Chemical Repository (21). The FDA-approved anticancer drug set is available from the Developmental Therapeutics Program at https://dtp.cancer.gov/organization/dscb/obtaining/. […] The stock solutions were prepared in dimethyl sulfoxide (DMSO, Sigma-Aldrich, St. Louis, MO, cat. D2650), except for the platinum compounds which were prepared in saline (Quality Biological, Gaithersburg, MD, cat. 114-055-101), at 800-fold the tested concentration and stored at -70 degrees C prior to their use. All drugs and investigational agents were tested over a range starting from a high concentration at or near the clinical Cmax and decreasing in half-log increments. If the clinical Cmax for an agent had not been determined, the highest concentration tested was 10 microM, except for SN-38, which was tested at a high concentration of 1 microM.
Cell Culture. All cells were maintained in an incubator at 37 degrees C and 5% CO2 with 95% humidity. The PDC lines were cultured according to standard operating procedures established by the NCI PDMR (https://pdmr.cancer.gov). Table 3 of the manuscript, lists the cell lines along with the number of the three cell types plated to form the mct-spheroids and media for tumor cell growth. After thawing, all PDC lines, except 997537-175-T-J1-PDC and 415267-285-R-J2-PDC, were cultured in Matrigel-coated flasks prepared with a working solution of 1X Ham's F-12 nutrient mix, without supplementation (Thermo Fisher Scientific, cat. 11765054), 100 U/mL penicillin-streptomycin (Thermo Fisher Scientific, cat. 15140122), and 2.5% Matrigel (Corning Inc., Corning, NY, cat. 354248) for the first three passages. The two PDC lines 997537-175-T-J1-PDC and 415267-285-R-J2-PDC were cultured on uncoated flasks. The 857933-349-R-J2-PDC line was cultured in 6C/Colon 1B media containing advanced DMEM/F-12 (Thermo Fisher Scientific, cat. 12634028), 10 mM HEPES (Thermo Fisher Scientific, cat. 15630080), 1X GlutaMAX supplement (Thermo Fisher Scientific, cat. 35050061), 0.1 mg/mL primocin (InvivoGen, San Diego, CA, cat. ant-pm-2), 10% defined fetal bovine serum, heat inactivated (HyClone Laboratories Inc., Logan, UT, cat. SH30070.03HI), 50% L-WRN conditioned media (ATCC, cat. CRL-3276), 1.25 mM N-Acetyl-L-cysteine (Sigma-Aldrich, cat. A9165), 10 mM nicotinamide (Sigma-Aldrich, cat. N0636), 1X B-27 supplement (Thermo Fisher Scientific, cat. 17504044), 1X N-2 supplement (Thermo Fisher Scientific, cat. […]

[1] = second compound 0.0316 µM, first compound 0.0316 µM
[2] = second compound 0.0316 µM, first compound 0.1 µM
[3] = second compound 0.0316 µM, first compound 0.316 µM
[4] = second compound 0.0316 µM, first compound 1 µM
[5] = second compound 0.0316 µM, first compound 3.16 µM
[6] = second compound 0.0316 µM, first compound 10 µM
[7] = second compound 0.1 µM, first compound 0.0316 µM
[8] = second compound 0.1 µM, first compound 0.1 µM
[9] = second compound 0.1 µM, first compound 0.316 µM
[10] = second compound 0.1 µM, first compound 1 µM
[11] = second compound 0.1 µM, first compound 3.16 µM
[12] = second compound 0.1 µM, first compound 10 µM
[13] = second compound 0.316 µM, first compound 0.0316 µM
[14] = second compound 0.316 µM, first compound 0.1 µM
[15] = second compound 0.316 µM, first compound 0.316 µM
[16] = second compound 0.316 µM, first compound 1 µM
[17] = second compound 0.316 µM, first compound 3.16 µM
[18] = second compound 0.316 µM, first compound 10 µM
[19] = second compound 1 µM, first compound 0.0316 µM
[20] = second compound 1 µM, first compound 0.1 µM
[21] = second compound 1 µM, first compound 0.316 µM
[22] = second compound 1 µM, first compound 1 µM
[23] = second compound 1 µM, first compound 3.16 µM
[24] = second compound 1 µM, first compound 10 µM
[25] = second compound 3.16 µM, first compound 0.0316 µM
[26] = second compound 3.16 µM, first compound 0.1 µM
[27] = second compound 3.16 µM, first compound 0.316 µM
[28] = second compound 3.16 µM, first compound 1 µM
[29] = second compound 3.16 µM, first compound 3.16 µM
[30] = second compound 3.16 µM, first compound 10 µM
[31] = second compound 10 µM, first compound 0.0316 µM
[32] = second compound 10 µM, first compound 0.1 µM
[33] = second compound 10 µM, first compound 0.316 µM
[34] = second compound 10 µM, first compound 1 µM
[35] = second compound 10 µM, first compound 3.16 µM
[36] = second compound 10 µM, first compound 10 µM
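Note: spheroids exposed to agents for 7 days before viability reading.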
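Throughout, for viability, T/C: percent of DMSO vehicle control viability so 100% = vehicle and 0% = no viable signal.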

Nc1ccn(C2OC(CO)C(O)C2(F)F)c(=O)n1 (centres undefined) + Cc1cccc(N(C)C(=O)C2C(O)CCN2c2nc(C)cc(C(F)(F)F)c2C#N)c1
IC50 (second compound 0.0316 µM): 958 nM
IC50 (second compound 0.1 µM): 408 nM
IC50 (second compound 0.316 µM): 468 nM
IC50 (second compound 1 µM): 1240 nM
IC50 (second compound 3.16 µM): 2050 nM
IC50 (second compound 10 µM): 3290 nM
viability, T/C [1]: 70.1%
viability, T/C [2]: 57%
viability, T/C [3]: 53.7%
viability, T/C [4]: 52.5%
viability, T/C [5]: 48%
viability, T/C [6]: 39%
viability, T/C [7]: 75%
viability, T/C [8]: 58.9%
viability, T/C [9]: 50.3%
viability, T/C [10]: 48.8%
viability, T/C [11]: 45%
viability, T/C [12]: 44.7%
viability, T/C [13]: 75%
viability, T/C [14]: 62.3%
viability, T/C [15]: 49.6%
viability, T/C [16]: 44.6%
viability, T/C [17]: 51.6%
viability, T/C [18]: 37.9%
viability, T/C [19]: 74%
viability, T/C [20]: 55.3%
viability, T/C [21]: 60.9%
viability, T/C [22]: 52.6%
viability, T/C [23]: 44.8%
viability, T/C [24]: 42.1%
viability, T/C [25]: 72.9%
viability, T/C [26]: 63.3%
viability, T/C [27]: 57.9%
viability, T/C [28]: 55%
viability, T/C [29]: 45.6%
viability, T/C [30]: 46.5%
viability, T/C [31]: 76.4%
viability, T/C [32]: 63.5%
viability, T/C [33]: 56.6%
viability, T/C [34]: 59.5%
viability, T/C [35]: 53.6%
viability, T/C [36]: 42.6%

O=C(Nc1ccc(O)c(NS(=O)(=O)c2ccc(F)cc2)c1)c1ccc(-c2ccccc2)cc1 + Cc1cccc(N(C)C(=O)C2C(O)CCN2c2nc(C)cc(C(F)(F)F)c2C#N)c1
IC50 (second compound 0.0316 µM): > 10000 nM
IC50 (second compound 0.1 µM): > 10000 nM
IC50 (second compound 0.316 µM): > 10000 nM
IC50 (second compound 1 µM): > 10000 nM
IC50 (second compound 3.16 µM): > 10000 nM
IC50 (second compound 10 µM): > 10000 nM
viability, T/C [1]: 107%
viability, T/C [2]: 91.1%
viability, T/C [3]: 95.9%
viability, T/C [4]: 102%
viability, T/C [5]: 108%
viability, T/C [6]: 78%
viability, T/C [7]: 110%
viability, T/C [8]: 103%
viability, T/C [9]: 100%
viability, T/C [10]: 106%
viability, T/C [11]: 101%
viability, T/C [12]: 78.7%
viability, T/C [13]: 111%
viability, T/C [14]: 104%
viability, T/C [15]: 114%
viability, T/C [16]: 105%
viability, T/C [17]: 98.4%
viability, T/C [18]: 69.3%
viability, T/C [19]: 103%
viability, T/C [20]: 110%
viability, T/C [21]: 111%
viability, T/C [22]: 97%
viability, T/C [23]: 107%
viability, T/C [24]: 83.3%
viability, T/C [25]: 107%
viability, T/C [26]: 112%
viability, T/C [27]: 111%
viability, T/C [28]: 102%
viability, T/C [29]: 114%
viability, T/C [30]: 81.2%
viability, T/C [31]: 89.1%
viability, T/C [32]: 96%
viability, T/C [33]: 103%
viability, T/C [34]: 95.1%
viability, T/C [35]: 97%
viability, T/C [36]: 63.7%
